Data: PubChem BioAssay AID248 (DTP/NCI, 2004)
Several values for one entry are separate records, joined by “and”; a condition that tells them apart may be missing. Identical values can stand only once. Inconclusive results and toxic doses are left out.

Tested on: L1210 leukemia ip in BDF1 mice, survival T/C
Experiment: NCI In Vivo Anticancer Drug Screen. Data for tumor model L1210 Leukemia (intraperitoneal) in B6D2F1 (BDF1) mice
Conditions: endpoint: mean survival time, higher = longer survival
Outline: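 Antitumor effect is assessed in tumor-bearing animals. Survival in the compound arm is compared with a vehicle-dosed control arm and expressed as their quotient.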

[1] = dose: 100.0 mg/kg/injection, schedule: Q01DX009 (ip), vehicle: Klucel (hydroxypropylcellulose) (HPC)
[2] = dose: 100.0 mg/kg/injection, schedule: Q04DX003 (ip), vehicle: Klucel (hydroxypropylcellulose) (HPC)
[3] = dose: 200.0 mg/kg/injection, schedule: Q01DX009 (ip), vehicle: Klucel (hydroxypropylcellulose) (HPC)
[4] = dose: 200.0 mg/kg/injection, schedule: Q04DX003 (ip), vehicle: Klucel (hydroxypropylcellulose) (HPC)
[5] = dose: 400.0 mg/kg/injection, schedule: Q01DX009 (ip), vehicle: Klucel (hydroxypropylcellulose) (HPC)
[6] = dose: 400.0 mg/kg/injection, schedule: Q04DX003 (ip), vehicle: Klucel (hydroxypropylcellulose) (HPC)
[7] = dose: 100.0 mg/kg/injection, schedule: Q04DX003 (ip), vehicle: saline
[8] = dose: 100.0 mg/kg/injection, schedule: Q01DX009 (ip), vehicle: saline with Tween-80
[9] = dose: 100.0 mg/kg/injection, schedule: Q04DX002 (ip), vehicle: Klucel (hydroxypropylcellulose) (HPC)
[10] = dose: 200.0 mg/kg/injection, schedule: Q04DX002 (ip), vehicle: Klucel (hydroxypropylcellulose) (HPC)
[11] = dose: 400.0 mg/kg/injection, schedule: Q04DX002 (ip), vehicle: Klucel (hydroxypropylcellulose) (HPC)
[12] = dose: 100.0 mg/kg/injection, schedule: Q04DX003 (ip), vehicle: saline with Tween-80
[13] = dose: 200.0 mg/kg/injection, schedule: Q04DX003 (ip), vehicle: saline with Tween-80
[14] = dose: 400.0 mg/kg/injection, schedule: Q04DX003 (ip), vehicle: saline with Tween-80
[15] = dose: 100.0 mg/kg/injection, schedule: Q01DX001 (ip), vehicle: carboxymethylcellulose (CMC)
[16] = dose: 200.0 mg/kg/injection, schedule: Q01DX001 (ip), vehicle: carboxymethylcellulose (CMC)
[17] = dose: 400.0 mg/kg/injection, schedule: Q01DX001 (ip), vehicle: carboxymethylcellulose (CMC)
[18] = dose: 50.0 mg/kg/injection, schedule: Q01DX009 (ip), vehicle: saline
[19] = dose: 100.0 mg/kg/injection, schedule: Q01DX009 (ip), vehicle: saline
[20] = dose: 200.0 mg/kg/injection, schedule: Q01DX009 (ip), vehicle: saline
[21] = dose: 25.0 mg/kg/injection, schedule: Q01DX009 (ip), vehicle: saline
[22] = dose: 100.0 mg/kg/injection, schedule: Q01DX001 (ip), vehicle: saline
[23] = dose: 25.0 mg/kg/injection, schedule: Q01DX009 (ip), vehicle: saline with Tween-80
[24] = dose: 50.0 mg/kg/injection, schedule: Q01DX009 (ip), vehicle: saline with Tween-80
[25] = dose: 200.0 mg/kg/injection, schedule: Q01DX009 (ip), vehicle: saline with Tween-80
[26] = dose: 400.0 mg/kg/injection, schedule: Q01DX009 (ip), vehicle: saline with Tween-80

O=C(Oc1ccccc1)c1ccc(Cl)cc1
T/C [1]: 98 % of control
T/C [2]: 102 % of control
T/C [3]: 95 % of control
T/C [4]: 101 % of control
T/C [5]: 98 % of control
T/C [6]: 98 % of control

O=C(O)CC1(O)CCCC1
T/C (dose: 25.0 mg/kg/injection, schedule: Q04DX003 (ip), vehicle: saline): 100 % of control
T/C (dose: 50.0 mg/kg/injection, schedule: Q04DX003 (ip), vehicle: saline): 96 % of control
T/C [7]: 107 % of control

Cc1nc2ccccc2n1C
T/C [8]: 107 % of control

O=C(C[N+]12CN3CN(CN(C3)C1)C2)c1ccc(Br)cc1
T/C (dose: 100.0 mg/kg/injection, schedule: Q01DX005 (ip), vehicle: Klucel (hydroxypropylcellulose) (HPC)): 103 % of control
T/C [1]: 111 % of control
T/C (dose: 200.0 mg/kg/injection, schedule: Q01DX005 (ip), vehicle: Klucel (hydroxypropylcellulose) (HPC)): 109 % of control
T/C [3]: 107 % of control
T/C (dose: 400.0 mg/kg/injection, schedule: Q01DX005 (ip), vehicle: Klucel (hydroxypropylcellulose) (HPC)): 111 % of control

CC(=O)c1cc(Cl)ccc1O
T/C (dose: 100.0 mg/kg/injection, schedule: Q01DX001 (ip), vehicle: Klucel (hydroxypropylcellulose) (HPC)): 104 % of control
T/C [9]: 100 % of control
T/C (dose: 200.0 mg/kg/injection, schedule: Q01DX001 (ip), vehicle: Klucel (hydroxypropylcellulose) (HPC)): 106 % of control
T/C [10]: 96 % of control
T/C (dose: 400.0 mg/kg/injection, schedule: Q01DX001 (ip), vehicle: Klucel (hydroxypropylcellulose) (HPC)): 97 % of control
T/C [11]: 89 % of control

N#CC(NC(=O)NCCO)c1ccccc1 (stereo not drawn)
T/C [12]: 107 % of control
T/C [13]: 96 % of control
T/C [14]: 101 % of control

COc1cc(CCl)cc(OC)c1OC
T/C [1]: 95 % of control
T/C [2]: 93 % of control
T/C [3]: 90 % of control
T/C [4]: 95 % of control
T/C [5]: 88 % of control
T/C [6]: 97 % of control

CN(c1ccccc1)c1cc(N)nc(N)n1
T/C (dose: 6.0 mg/kg/injection, schedule: Q01DX Z (ip), vehicle: methylcellulose (MC)): 92 % of control

CC(=O)OCCC/C(=C\c1ccc(C)cc1)[N+](=O)[O-]
T/C [15]: 88 % of control
T/C [16]: 88 % of control
T/C [17]: 88 % of control

C1CC2CC2CCC2CC12 (stereo not drawn)
T/C [1]: 104 % of control
T/C [2]: 101 % of control
T/C [3]: 95 % of control
T/C [4]: 95 % of control
T/C [5]: 102 % of control
T/C [6]: 101 % of control

CCN(CC)CCNc1ccc(CO)c2oc3ccccc3c(=O)c12
T/C [18]: 99 % of control
T/C [19]: 96 % of control
T/C [20]: 99 % of control

C[n+]1ccc(Nc2ccc(NC(=O)c3ccc(Nc4cc[n+](C)c5ccc([N+](=O)[O-])cc45)cc3[N+](=O)[O-])cc2)cc1
T/C (dose: 12.5 mg/kg/injection, schedule: Q01DX009 (ip), vehicle: saline): 112 % of control
T/C (dose: 25.0 mg/kg/injection, schedule: Q01DX001 (ip), vehicle: saline): 105 % of control
T/C [21]: 117 % of control
T/C (dose: 25.0 mg/kg/injection, schedule: Q04DX003 (ip), vehicle: suspension in saline): 111 % of control
T/C (dose: 50.0 mg/kg/injection, schedule: Q01DX001 (ip), vehicle: saline): 98 % of control
T/C [18]: 120 % of control
T/C (dose: 50.0 mg/kg/injection, schedule: Q04DX003 (ip), vehicle: suspension in saline): 116 % of control
T/C [22]: 105 % of control
T/C (dose: 100.0 mg/kg/injection, schedule: Q01DX001 (ip), vehicle: suspension in saline): 114 % of control
T/C [7]: 105 % of control and 104 % of control
T/C (dose: 200.0 mg/kg/injection, schedule: Q04DX003 (ip), vehicle: saline): 120 % of control and 123 % of control
T/C (dose: 200.0 mg/kg/injection, schedule: Q04DX003 (ip), vehicle: suspension in saline): 190 % of control and 203 % of control
T/C (dose: 400.0 mg/kg/injection, schedule: Q01DX001 (ip), vehicle: suspension in saline): 173 % of control and 206 % of control
T/C (dose: 400.0 mg/kg/injection, schedule: Q04DX003 (ip), vehicle: suspension in saline): 90 % of control
T/C (dose: 600.0 mg/kg/injection, schedule: Q04DX003 (ip), vehicle: saline): 119 % of control
T/C (dose: 800.0 mg/kg/injection, schedule: Q04DX002 (ip), vehicle: saline): 102 % of control and 108 % of control

O=C(NCc1cnccn1)Nc1ccccc1
T/C [21]: 101 % of control
T/C [18]: 87 % of control
T/C [19]: 108 % of control
T/C [20]: 102 % of control
T/C (dose: 400.0 mg/kg/injection, schedule: Q01DX009 (ip), vehicle: saline): 103 % of control

O=C(NCCCc1ccc(S(=O)(=O)F)cc1)Oc1ccc([N+](=O)[O-])cc1
T/C [23]: 102 % of control
T/C [24]: 100 % of control
T/C [8]: 93 % of control and 86 % of control

O=C1OC2(CCN(Cc3ccccc3)CC2)C(=O)N1c1cccc(Cl)c1
T/C [15]: 92 % of control
T/C [16]: 106 % of control
T/C [17]: 97 % of control

COc1cc(C(C)S(=O)(=O)c2ccccc2)ccc1O (stereo not drawn)
T/C [15]: 97 % of control
T/C [16]: 97 % of control
T/C [17]: 103 % of control

COc1ccccc1N(N=O)C(=O)CC(C)=O
T/C [22]: 101 % of control
T/C (dose: 200.0 mg/kg/injection, schedule: Q01DX001 (ip), vehicle: saline): 101 % of control
T/C (dose: 400.0 mg/kg/injection, schedule: Q01DX001 (ip), vehicle: saline): 101 % of control

COc1cc(OC)c(/C=C/c2c3ccccc3cc[n+]2C)c(OC)c1
T/C (dose: 0.78 mg/kg/injection, schedule: Q01DX009 (ip), vehicle: saline with Tween-80): 100 % of control
T/C (dose: 1.56 mg/kg/injection, schedule: Q01DX009 (ip), vehicle: saline with Tween-80): 97 % of control

COC1OC(COC(=O)c2ccccc2)C(OC(=O)c2ccccc2)C(OC(=O)c2ccccc2)C1OS(=O)(=O)c1ccc(C)cc1 (stereo not drawn)
T/C [9]: 103 % of control
T/C [10]: 88 % of control
T/C [11]: 88 % of control

O=[N+]([O-])c1cccc(C=Nc2cccc3ccccc23)c1
T/C [1]: 96 % of control
T/C [3]: 98 % of control
T/C [5]: 88 % of control

C#CC1(OCC(CCl)OC(N)=O)CCCCC1 (stereo not drawn)
T/C [23]: 105 % of control
T/C (dose: 25.0 mg/kg/injection, schedule: Q04DX003 (ip), vehicle: saline with Tween-80): 105 % of control
T/C [24]: 105 % of control
T/C (dose: 50.0 mg/kg/injection, schedule: Q04DX003 (ip), vehicle: saline with Tween-80): 95 % of control
T/C [8]: 102 % of control
T/C [12]: 101 % of control
T/C [25]: 105 % of control
T/C [13]: 100 % of control
T/C [26]: 97 % of control
T/C [14]: 86 % of control

COC(=O)c1cc(NC(=O)Nc2ccc(F)c([N+](=O)[O-])c2)cc(C(=O)OC)c1
T/C [1]: 95 % of control
T/C [3]: 93 % of control
T/C [5]: 96 % of control

O=C(O)CNC(=O)Nc1ccccc1
T/C [8]: 97 % of control
T/C [12]: 100 % of control
T/C [25]: 95 % of control
T/C [13]: 96 % of control
T/C [26]: 91 % of control
T/C [14]: 97 % of control

CCCCCCCCCCCC(=O)OCC1OC2C(Oc3nc(=N)ccn32)C1OC(=O)CCCCCCCCCCC (stereo not drawn)
T/C (dose: 12.5 mg/kg/injection, schedule: Q01DX009 (ip), vehicle: water): 157 % of control
T/C (dose: 25.0 mg/kg/injection, schedule: Q01DX009 (ip), vehicle: water): 210 % of control
T/C (dose: 50.0 mg/kg/injection, schedule: Q01DX009 (ip), vehicle: water): 165 % of control

O=S(=O)(C#Cc1ccccc1)c1ccccc1
T/C [9]: 89 % of control

CCCCCCCCCCCCN(C)S(=O)(=O)c1ccc(Cl)c(N)c1
T/C [8]: 95 % of control
T/C [2]: 91 % of control
T/C [25]: 89 % of control
T/C [4]: 108 % of control
T/C [26]: 93 % of control
T/C [6]: 89 % of control
